The text below walks through data of patent publication US12018267B2, “Plants having increased tolerance to herbicides” (BASF SE, priority 2015, dated 2024).

Assay [1] has as its system O. sativa Volano-M3-CESA1 and CESA3 mutants. Briefly: Greenhouse foliar application, crop injury on tilled Rice M3 generation cellulose synthase mutants (Table E10-1). In kind it is in vivo, Oryza sativa. Particulars: foliar application 250 g ai/ha. An excerpt: Oryza sativa M2 Volano is a cellulose biosynthesis inhibitor susceptible rice risotto population that was subjected to sodium azide seed mutagenesis but was not tilled nor selected for CESA mutations. O. sativa Volano-M3-CESA1 and CESA3 mutants were selected from a subpopulation of O. sativa M2 Volano by sequencing CESA gene sequences in M2 plants and maintaining (producing seed through selfing) those individuals containing key mutations in these genes. The tolerance of the M3 CESA1 and CESA3 mutants was assessed using 6-(1-fluorocyclopentyl)-N2-(2,3,5,6-tetrafluorophenyl)-1,3,5-triazine-2,4-diamine, together with 1.0% DASH® EC adjuvant (BASF). The tolerance of M4 CESA1 and CESA3 mutants was assessed using 6-cyclopentyl-N4-(2,3,4,5,6-pentafluorophenyl)-1,3,5-triazine-2,4-diamine, together with 1.0% DASH® EC adjuvant (BASF).
M3 seed, which were harvested from tilled and selected individuals containing mutations in the CESA1 and CESA3 genes, were grown in the greenhouse under natural light conditions supplemented with 400 W sodium halide lamps under a 16 hr day length. Day/night temperatures were 26 and 20° C., respectively. The number of M3 plants from each line varied between 2 and 16, depending on seed availability and germination. A non-selective CBI, azine 6-(1-fluorocyclopentyl)-N2-(2,3,5,6-tetrafluorophenyl)-1,3,5-triazine-2,4-diamine, formulated with 1.0% DASH in a water volume of 375 L/ha was applied early post-emergent (one to two leaf stage) at a rate of 250 g ai/ha to M3 CESA1 and CESA3 mutant rice plants growing in soil in the greenhouse. Only plants originating from lines having more than four seeds were subjected to herbicide treatment. CESA mutant lines with four or fewer seeds were selfed for an additional generation and then tested at the M4 generation with 6-cyclopentyl-N4-(2,3,4,5,6-pentafluorophenyl)-1,3,5-triazine-2,4-diamine. M4 plants were grown under similar conditions as M3 plants and treated with 250 g ai/ha or 500 g ai/ha of 6-cyclopentyl-N4-(2,3,4,5,6-pentafluorophenyl)-1,3,5-triazine-2,4-diamine. […] Plants without any symptoms were recorded as “0%” injury. Increasing levels of reduced leaf mass and reduced stalk stiffness, with respect to the untreated control plants, were recorded in the range of “1 to 49%” injury. Increasing levels of leaf abnormalities and leaf necrosis, along with increased levels of lodging, relative to the untreated control plants, were recorded in the range of “50 to 85%” injury. Dead or dying plants with necrosis of the apex and severe lodging were recorded between “86-100%”. Data on individual plants was assessed and recorded due to the low number of individuals per line and the fact that the CESA mutations in the M2 generation were heterozygous and therefore segregating at the M3 and M4 generations. […]

The test system of assay [2] is transgenic Arabidopsis plants with wildtype or mutated cellulose synthase sequences (SEQ ID NO: 1 or 3). Put plainly: 48-well plate growth inhibition of transgenic T2 Arabidopsis, relative tolerance rates versus non-transgenic (Table E2-1). The format is in vivo, Arabidopsis thaliana. The conditions noted are these: growth inhibition evaluated seven to ten days after seeding. An excerpt: For transformation of Arabidopsis thaliana, wildtype or mutated cellulose synthase sequences encoding for one of the following protein sequences SEQ ID NO: 1 or 3, are cloned with standard cloning techniques as described in Sambrook et al. (Molecular cloning (2001) Cold Spring Harbor Laboratory Press) in a binary vector containing resistance marker gene cassette (AHAS) and mutated cellulose synthase sequence (marked as GOI) in between ubiquitin promoter (PcUbi) and nopaline synthase terminator (NOS) sequence. Binary plasmids are introduced to Agrobacterium tumefaciens for plant transformation. Arabidopsis thaliana are transformed with wildtype or mutated cellulose synthase sequences by floral dip method as described by McElver and Singh (WO 2008/124495). Transgenic Arabidopsis plants are subjected to TaqMan analysis for analysis of the number of integration loci.
Transgenic Arabidopsis thaliana plants (T2) are assayed for improved tolerance to azine herbicides like e. g. 6-cyclopentyl-N4-(2,3,4,5,6-pentafluorophenyl)-1,3,5-triazine-2,4-diamine in 48-well plates. Therefore, T2 seeds are surface sterilized by stirring for 5 min in ethanol+water (70+30 by volume), rinsing one time with ethanol+water (70+30 by volume) and two times with sterile, deionized water. The seeds are resuspended in 0.1% agar dissolved in water (w/v) Four to five seeds per well are plated on solid nutrient medium consisting of half-strength murashige skoog nutrient solution, pH 5.8 (Murashige and Skoog (1962) Physiologia Plantarum 15: 473-497). Compounds are dissolved in dimethylsulfoxid (DMSO) and added to the medium prior solidification (final DMSO concentration 0.1%). Multi well plates are incubated in a growth chamber at 22° C., 75% relative humidity and 110 μmol Phot*m^−2*s^−1 with 14:10 h light:dark photoperiod. Growth inhibition is evaluated seven to ten days after seeding in comparison to wild type plants. Tolerance factors are calculated based on IC50 values of growth inhibition of transformed versus non-transformed Arabidopsis plants.

Turning to `Nc1nc(Nc2c(F)c(F)cc(F)c2F)nc(C2(F)CCCC2)n1` [6-(1-fluorocyclopentyl)-N2-(2,3,5,6-tetrafluorophenyl)-1,3,5-triazine-2,4-diamine], the “Crop Injury Assessment (%) at 20 DAT” value in assay [1] (Rice M3 OsCESA1 A1066T (SEQ ID 51), parental plant Het) is reported as 10%; in assay [1] (Rice M3 OsCESA1 S827N (SEQ ID 51), parental plant Het) it was 0%; in assay [1] (Rice M3 OsCESA1 V9231 (SEQ ID 51), parental plant Het), 0%; in assay [1] (Rice M3 OsCESA3 V1022L (SEQ ID 55), parental plant Hom), 20%.

`Nc1nc(Nc2c(F)c(F)c(F)c(F)c2F)nc(C2CCCC2)n1` [6-cyclopentyl-N4-(2,3,4,5,6-pentafluorophenyl)-1,3,5-triazine-2,4-diamine]: the “Relative tolerance rate of transgenic Arabidopsis plants as compared to non-transgenic (non-transgenic = 1.0)” value in assay [2] (Construct AtCesA1_G1031R, SEQ ID 1, variant G1031R) is 7; in assay [2] (Construct AtCesA1_L1011A, SEQ ID 1, variant L1011A), 3; in assay [2] (Construct AtCesA1_R292H, SEQ ID 1, variant R292H) it was 3; in assay [2] (Construct AtCesA1_V297M, SEQ ID 1, variant V297M), 1; in assay [2] (Construct AtCesA1_wt, SEQ ID 1, no variant), 1; in assay [2] (Construct AtCesA3_F1039L, SEQ ID 3, variant F1039L), 3. In assay [2] (Construct AtCesA3_wt, SEQ ID 3, no variant), the “Relative tolerance rate of transgenic Arabidopsis plants as compared to non-transgenic (non-transgenic = 1.0)” value worked out at 1.
